Data taken from patent US20170009228A1, “BIOLOGICAL MATERIALS AND THERAPEUTIC USES THEREOF” (IMPERIAL INNOVATIONS LIMITED, priority 2014, published 2017).

Legend:
IL-1 = assay: Addition of IL-1 receptor antagonist before FBG stimulation; format: cell-based; details: 10 μg/ml IL1 receptor antagonist, data not shown
Description: (§1) Where stated, cells were pre-incubated with 10 μg/ml anti-CD14 antibody, 10 μg/ml IL1 receptor antagonist, 10 μg/ml anti-TLR2 antibody, 25 μg/ml anti-TLR4 antibody, 10 or 25 μg/ml isotype control antibody, 25 μg/ml polymyxin B, or 1 μg/ml msbB LPS, for 30 minutes at 37° C. before stimulation. Where stated, recombinant tenascin-C and FBG, and LPS were boiled for 15 minutes before addition to cells
(§2) Supernatants were subsequently examined for the presence of the cytokines TNF-α, IL-6, and IL-8 by enzyme-linked immunosorbent assay (ELISA) according to the manufacturer's instructions. Absorbance was read on a spectrophotometric ELISA plate reader (Labsystems Multiscan Biochromic, Vantaa, Finland) and analyzed using the Ascent software program (Thermo Labsystems, Altrincham, UK).

[1] = tested on: primary human macrophages; assay: Cytokine synthesis in primary human macrophages stimulated with tenascin-C or its domains; format: cell-based
Description: Human monocytes were isolated from peripheral blood (London Blood Bank) and macrophages were derived from monocytes after differentiation for 4 days with 100 ng/ml of M-CSF as previously described (Foxwell (1998)).
(§3) Immediately after isolation, RA membrane cells and macrophages were cultured at 1×10^5 cells/well in RPMI 1640 containing 10% (v/v) FBS and 100 U/ml (Units/ml) penicillin/streptomycin in 96-well tissue culture plates for 24 hours before stimulation. Synovial fibroblasts (used only at either passage number 2 or 3) were cultured at 1×10^4 cells/well in DMEM containing 10% (v/v) FBS and 100 U/ml penicillin/streptomycin in 96-well tissue culture plates for 24 hours before stimulation.
(§4) Cells were incubated for 24 hours at 37° C. with the indicated doses of tenascin-C and recombinant tenascin-C fragments (1.0 μM-1.0 nM). Cells were also stimulated where indicated with LPS (1 ng/ml for human macrophages, 10 ng/ml for human fibroblasts, RA membrane cells and HEKs, 100 ng/ml for MEFS and BMDMs and 10 ng/ml for HEKS), PAM3 (10 ng/ml for human macrophages, human fibroblasts, and HEKs, 100 ng/ml for MEFs and BMDMs), murine IL-1 (5 ng/ml for MEFS) and murine TNF-α (100 ng/ml for MEFS). Unless specifically stated otherwise rough LPS was used for in vitro studies.
as §1, §2

serum from RA patients = assay: Western blot of citrullinated tenascin-C probed with serum from RA patients or healthy controls; format: binding, human; details: sera from RA patients or normal healthy controls, not shown
Description: SDS PAGE of Citrullinated Proteins 33.33 ul of citrullination reaction (cit-TNC alone or cit-TNC combined with cit-FBG) was loaded into NuPAGE® Novex 4-12% Bis-tris gel using a 1.0 mm 2D single lane well.
After electrophoresis proteins were transferred to nitrocellulose and the membrane blocked and then cut into strips (up to 8 strips ˜0.7 cm wide). Strips were incubated with serum from RA patients or normal healthy individuals diluted 1:100 in 5% milk TBS-tween. Strips were incubated in 15 ml falcon tubes on rollers 1 h room temperature, then washed 3 ×5 min, 1×15 min in tubes with TBS-Tween. Strips were then incubated with secondary mouse anti-human Ig 1:5000 1 h in room temperature, then washed 3×5 min, 1×15 min in the dish with TBS-tween. Strips were finally incubated with ECL reagents and exposed to film.

RA synovial fibroblasts = assay: Cytokine synthesis in RA synovial fibroblasts stimulated with tenascin-C, FBG or LPS; format: cell-based, human
From the text: RA membrane cells (representing a mixed population of all synovial cell types) were isolated from synovial membranes obtained from patients undergoing joint replacement surgery as previously described (Brennan (1989)). RA synovial fibroblasts were isolated from the mixed population of RA membrane cells as previously described (Brennan (1989)). The study was approved by the local Trust ethics committee (Riverside NHS Research Committee), and waste tissue (synovium after joint replacement surgery) was obtained only after receiving signed informed consent from the patient and anonymyzing the tissue to protect patient identity.
as §3, §4, §2

| FBG induction of cytokines (IL-1) | Substance | heat and polymyxin B sensitivity of cytokine stimulation ([1]; boiled 15 min, 25 μg/ml polymyxin B pre-incubation) | production of TNF-α, IL-6 and IL-8 ([1]; human macrophages, 24 h, 1.0 μM-1.0 nM) | reactivity with sera in blots (serum from RA patients) | IL-6 synthesis (RA synovial fibroblasts; RA synovial fibroblasts, 24 h) | TNF-α synthesis (RA synovial fibroblasts; fibroblasts, data not shown) |
| --- | --- | --- | --- | --- | --- | --- |
| did not inhibit | IL-1 receptor antagonist: IL-1 receptor antagonist from R&D Systems |  |  |  |  |  |
|  | tenascin-C: recombinant full-length human tenascin-C purified from HEK293 conditioned medium | heat sensitive and unaffected by the LPS inhibitor, polymyxin B | dose dependently stimulated | No reactivity | only induced IL-6 synthesis | Neither LPS nor tenascin-C induced TNF-α synthesis |
